Values of other authors in patent publication EP2335686A1, “An aqueous intravenous nanosuspension with reduced adverse effects” (LEK Pharmaceuticals d.d., priority 2009, dated 2011).
Converted amounts (≈) assume the structure as drawn.

CC(C)c1cccc(C(C)C)c1O [propofol]
aqueous solubility at room temperature: 0.0164 µg/mL (≈ 0.092 µM)
